Measurements reported in patent US11006631B2, “Substituted pyrimidinyloxy pyridine derivatives as herbicides” (FMC Corporation, priority 2015, dated 2021).

What was measured:
Format in all cases: in vivo
[1] = tested on: barnyardgrass (Echinochloa crus-galli); experiment: Test A preemergence, barnyardgrass; conditions: 0 to 100 scale
From the text: (§1) Seeds of plant species selected from bamyardgrass (Echinochloa crus-galli), kochia (Kochia scoparia), ragweed (common ragweed, Ambrosia elatior), ryegrass, Italian (Italian ryegrass, Lolium multiflorum), foxtail, giant (giant foxtail, Setaria faberii), pigweed (Amaranthus retroflexus), crabgrass, large (large crabgrass, Digitaria sanguinalis), momingglory (Ipomoea spp.), velvetleaf (Abutilon theophrasti), wheat (Triticum aestivum), and corn (Zea mays) were planted into a blend of loam soil and sand and treated preemergence with a directed soil spray using test chemicals formulated in a non-phytotoxic solvent mixture which included a surfactant. At the same time, plants selected from these crop and weed species and also blackgrass (Alopecurus myosuroides), and galium (catchweed bedstraw, Galium aparine) were planted in pots containing the same blend of loam soil and sand and treated with postemergence applications of test chemicals formulated in the same manner. Plants ranged in height from 2 to 10 cm and were in the one- to two-leaf stage for the postemergence treatment. Treated plants and untreated controls were maintained in a greenhouse for approximately 10 days, after which time all treated plants were compared to untreated controls and visually evaluated for injury. Plant response ratings, summarized in Table A, are based on a 0 to 100 scale where 0 is no effect and 100 is complete control. A dash (-) response means no test result.

kochia (Kochia scoparia) [2] = experiment: Test A preemergence, kochia; conditions: 0 to 100 scale
From the text: as §1

[3] = tested on: ragweed (common ragweed, Ambrosia elatior); experiment: Test A preemergence, ragweed; conditions: 0 to 100 scale
From the text: as §1

[4] = tested on: ryegrass, Italian (Italian ryegrass, Lolium multiflorum); experiment: Test A preemergence, ryegrass, Italian; conditions: 0 to 100 scale
From the text: as §1

[5] = tested on: foxtail, giant (giant foxtail, Setaria faberii); experiment: Test A preemergence, foxtail, giant; conditions: 0 to 100 scale
From the text: as §1

[6] = tested on: pigweed (Amaranthus retroflexus); experiment: Test A preemergence, pigweed; conditions: 0 to 100 scale
From the text: as §1

[7] = tested on: barnyardgrass (Echinochloa crus-galli); experiment: Test A postemergence, barnyardgrass; conditions: 0 to 100 scale
From the text: as §1

kochia (Kochia scoparia) [8] = experiment: Test A postemergence, kochia; conditions: 0 to 100 scale
From the text: as §1

[9] = tested on: ragweed (common ragweed, Ambrosia elatior); experiment: Test A postemergence, ragweed; conditions: 0 to 100 scale
From the text: as §1

[10] = tested on: ryegrass, Italian (Italian ryegrass, Lolium multiflorum); experiment: Test A postemergence, ryegrass, Italian; conditions: 0 to 100 scale
From the text: as §1

[11] = tested on: foxtail, giant (giant foxtail, Setaria faberii); experiment: Test A postemergence, foxtail, giant; conditions: 0 to 100 scale
From the text: as §1

[12] = tested on: pigweed (Amaranthus retroflexus); experiment: Test A postemergence, pigweed; conditions: 0 to 100 scale
From the text: as §1

[13] = tested on: wheat (Triticum aestivum); experiment: Test A postemergence, wheat; conditions: 0 to 100 scale
From the text: as §1

corn (Zea mays) = experiment: Test A postemergence, corn; conditions: 0 to 100 scale
From the text: as §1

[14] = tested on: blackgrass (Alopecurus myosuroides); experiment: Test A postemergence, blackgrass; conditions: 0 to 100 scale
From the text: as §1

[15] = tested on: galium (catchweed bedstraw, Galium aparine); experiment: Test A postemergence, galium; conditions: 0 to 100 scale
From the text: as §1

rice (Oryza sativa) = experiment: Test B flooded paddy test, rice; conditions: Flood, 250 g ai/ha; scale of 0 to 100
Description: (§2) Plant species in the flooded paddy test selected from rice (Oryza sativa), sedge, umbrella (small-flower umbrella sedge, Cyperus difformis), ducksalad (Heteranthera limosa), and barnyardgrass (Echinochloa crus-galli) were grown to the 2-leaf stage for testing. At time of treatment, test pots were flooded to 3 cm above the soil surface, treated by application of test compounds directly to the paddy water, and then maintained at that water depth for the duration of the test. Treated plants and controls were maintained in a greenhouse for 13 to 15 days, after which time all species were compared to controls and visually evaluated. Plant response ratings, summarized in Table B, are based on a scale of 0 to 100 where 0 is no effect and 100 is complete control. A dash (-) response means no test result.

[16] = tested on: sedge, umbrella (small-flower umbrella sedge, Cyperus difformis); experiment: Test B flooded paddy test, sedge, umbrella; conditions: Flood, 250 g ai/ha; scale of 0 to 100
Description: as §2

[17] = tested on: ducksalad (Heteranthera limosa); experiment: Test B flooded paddy test, ducksalad; conditions: Flood, 250 g ai/ha; scale of 0 to 100
Description: as §2

[18] = tested on: barnyardgrass (Echinochloa crus-galli); experiment: Test B flooded paddy test, barnyardgrass; conditions: Flood, 250 g ai/ha; scale of 0 to 100
Description: as §2

SMILES | Plant response rating, Barnyardgrass ([1]; 31 g ai/ha) | Plant response rating, Barnyardgrass ([1]; 125 g ai/ha) | Plant response rating, Kochia (kochia (Kochia scoparia) [2]; 31 g ai/ha) | Plant response rating, Kochia (kochia (Kochia scoparia) [2]; 125 g ai/ha) | Plant response rating, Ragweed ([3]; 31 g ai/ha) | Plant response rating, Ragweed ([3]; 125 g ai/ha) | Plant response rating, Ryegrass, Italian ([4]; 31 g ai/ha) | Plant response rating, Ryegrass, Italian ([4]; 125 g ai/ha) | Plant response rating, Foxtail, Giant ([5]; 31 g ai/ha) | Plant response rating, Foxtail, Giant ([5]; 125 g ai/ha) | Plant response rating, Pigweed ([6]; 31 g ai/ha) | Plant response rating, Pigweed ([6]; 125 g ai/ha) | Plant response rating, Barnyardgrass ([7]; 31 g ai/ha) | Plant response rating, Barnyardgrass ([7]; 125 g ai/ha) | Plant response rating, Kochia (kochia (Kochia scoparia) [8]; 31 g ai/ha) | Plant response rating, Kochia (kochia (Kochia scoparia) [8]; 125 g ai/ha) | Plant response rating, Ragweed ([9]; 31 g ai/ha) | Plant response rating, Ragweed ([9]; 125 g ai/ha) | Plant response rating, Ryegrass, Italian ([10]; 31 g ai/ha) | Plant response rating, Ryegrass, Italian ([10]; 125 g ai/ha) | also measured
Clc1ccc(-c2cccnc2Oc2ncc(Cl)cn2)nc1 [Compound 12, 5-chloro-2-[(5-chloro[2,3′-bipyridin]-2′-yl)oxy]pyrimidine] | 0 | 0 | 0 | 40 | 0 | 0 | 0 | 0 | 0 | 0 | 0 | 60 | 0 | 30 | 0 | 40 | 0 | 10 | 0 | 0 | Plant response rating, Foxtail, Giant ([11]; 31 g ai/ha): 0; Plant response rating, Foxtail, Giant ([11]; 125 g ai/ha): 0; Plant response rating, Pigweed ([12]; 31 g ai/ha): 10; Plant response rating, Pigweed ([12]; 125 g ai/ha): 30; Plant response rating, Wheat ([13]; 31 g ai/ha): 0; Plant response rating, Wheat ([13]; 125 g ai/ha): 0; Plant response rating, Corn (corn (Zea mays); 31 g ai/ha): 0; Plant response rating, Corn (corn (Zea mays); 125 g ai/ha): 10; Plant response rating, Blackgrass ([14]; 31 g ai/ha): 0; Plant response rating, Blackgrass ([14]; 125 g ai/ha): 0; Plant response rating, Galium ([15]; 31 g ai/ha): 10; Plant response rating, Galium ([15]; 125 g ai/ha): 10; Plant response rating, Rice (rice (Oryza sativa)): 20; Plant response rating, Sedge, Umbrella [16]: 30; Plant response rating, Ducksalad [17]: 30; Plant response rating, Barnyardgrass [18]: 0
Fc1cnc(Oc2cccnc2-c2cc(C(F)F)no2)nc1 [Compound 7] | 0 | 20 | 20 | 70 | 0 | 30 | 0 | 0 | 0 | 20 | 70 | 100 | 0 | 0 | 70 | 90 | 0 | 10 | 0 | 0 | Plant response rating, Foxtail, Giant ([11]; 31 g ai/ha): 0; Plant response rating, Foxtail, Giant ([11]; 125 g ai/ha): 0; Plant response rating, Pigweed ([12]; 31 g ai/ha): 20; Plant response rating, Pigweed ([12]; 125 g ai/ha): 70; Plant response rating, Wheat ([13]; 31 g ai/ha): 0; Plant response rating, Wheat ([13]; 125 g ai/ha): 20; Plant response rating, Corn (corn (Zea mays); 31 g ai/ha): 0; Plant response rating, Corn (corn (Zea mays); 125 g ai/ha): 0; Plant response rating, Blackgrass ([14]; 31 g ai/ha): 0; Plant response rating, Blackgrass ([14]; 125 g ai/ha): 0; Plant response rating, Galium ([15]; 31 g ai/ha): 20; Plant response rating, Galium ([15]; 125 g ai/ha): 50; Plant response rating, Rice (rice (Oryza sativa)): 0; Plant response rating, Sedge, Umbrella [16]: 0; Plant response rating, Ducksalad [17]: 50; Plant response rating, Barnyardgrass [18]: 0
